Test results as given in ChEMBL document CHEMBL5726598, “Compounds, compositions and methods” (2017).

Target: T1, Receptor-interacting serine/threonine-protein kinase 1 (Homo sapiens, UniProt Q13546)
T1 sequence (Q13546 whole entry): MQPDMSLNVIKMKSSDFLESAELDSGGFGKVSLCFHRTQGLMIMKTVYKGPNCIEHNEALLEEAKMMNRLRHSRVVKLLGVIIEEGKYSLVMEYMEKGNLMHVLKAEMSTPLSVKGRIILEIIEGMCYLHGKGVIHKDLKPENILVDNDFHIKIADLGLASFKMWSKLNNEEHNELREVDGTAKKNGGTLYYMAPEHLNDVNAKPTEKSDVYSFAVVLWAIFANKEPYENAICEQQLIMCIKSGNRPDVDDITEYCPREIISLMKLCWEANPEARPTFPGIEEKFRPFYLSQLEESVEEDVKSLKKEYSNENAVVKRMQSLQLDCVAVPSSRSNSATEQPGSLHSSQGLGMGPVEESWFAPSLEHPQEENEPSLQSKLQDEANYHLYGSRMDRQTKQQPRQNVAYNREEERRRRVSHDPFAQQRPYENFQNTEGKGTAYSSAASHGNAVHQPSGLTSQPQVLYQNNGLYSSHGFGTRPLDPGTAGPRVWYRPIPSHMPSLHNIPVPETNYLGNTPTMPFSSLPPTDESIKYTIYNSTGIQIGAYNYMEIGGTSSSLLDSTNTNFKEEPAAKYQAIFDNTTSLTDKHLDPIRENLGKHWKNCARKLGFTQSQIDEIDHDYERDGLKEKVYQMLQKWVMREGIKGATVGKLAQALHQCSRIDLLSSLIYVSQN
Assay: For negative control the enzyme addition was replaced by assay buffer only.

| IC50 [nM] | SMILES |
| --- | --- |
| 0.1 to 1000 | CN1C(=O)[C@@H](NC(=O)c2cc(C3(c4ccccc4)CC3)on2)COc2cnccc21 |
| 0.1 to 1000 | CN1C(=O)[C@@H](NC(=O)c2nn(Cc3ccccc3C#N)cc2F)COc2cccnc21 |

| SMILES | IC50 [nM] |
| --- | --- |
| CN1C(=O)[C@H](NC(=O)c2cc(Oc3ccc(F)cc3F)ccn2)CCc2cccnc21 | > 3000 |
